Experimental data as given in ChEMBL document CHEMBL3046822, “Synthesis, antiplatelet aggregation activity, and molecular modeling study of novel substituted-piperazine analogues” (2011).
The source made the active and inactive calls. The calls are words filed in the database; no cut-off is given here.

How the values were obtained:
[1] = Antiaggregating activity in Homo sapiens (human) platelet rich plasma assessed as ADP-induced platelet aggregation at 2 uM incubated for 4 min prior to ADP-induction measured for 5.5 min by turbidometric analysis (reference value: 54 to 88%); assay type: functional
[2] = Antiaggregating activity in Homo sapiens (human) platelet rich plasma assessed as ristocetin-induced platelet aggregation at 5 uM incubated for 4 min prior to ristocetin-induction measured for 5.5 min by turbidometric analysis (reference value: 65 to 99%); assay type: functional
[3] = system: Platelet; assay: Antiaggregating activity in Homo sapiens (human) platelet rich plasma assessed as inhibition of adrenaline-induced platelet aggregation at 5 uM incubated for 4 min prior to adrenaline-induction measured for 5.5 min by turbidometric analysis; assay type: functional, cell-free
[4] = Antiaggregating activity in Homo sapiens (human) platelet rich plasma assessed as adrenaline-induced platelet aggregation at 1 uM incubated for 4 min prior to adrenaline-induction measured for 5.5 min by turbidometric analysis (reference value: 65 to 100%); assay type: functional
[5] = Antiaggregating activity in Homo sapiens (human) platelet rich plasma assessed as ristocetin-induced platelet aggregation at 2 uM incubated for 4 min prior to ristocetin-induction measured for 5.5 min by turbidometric analysis (reference value: 65 to 99%); assay type: functional
[6] = Antiaggregating activity in Homo sapiens (human) platelet rich plasma assessed as ristocetin-induced platelet aggregation at 1 uM incubated for 4 min prior to ristocetin-induction measured for 5.5 min by turbidometric analysis (reference value: 65 to 99%); assay type: functional
[7] = Antiaggregating activity in Homo sapiens (human) platelet rich plasma assessed as disaggregation of ADP-induced platelet aggregation at 5 uM incubated for 4 min prior to ADP-induction measured for 5.5 min by turbidometric analysis relative to control; assay type: functional
[8] = Antiaggregating activity in Homo sapiens (human) platelet rich plasma assessed as ADP-induced platelet aggregation at 1 uM incubated for 4 min prior to ADP-induction measured for 5.5 min by turbidometric analysis (reference value: 54 to 88%); assay type: functional
[9] = system: Platelet; assay: Antiaggregating activity in Homo sapiens (human) platelet rich plasma assessed as inhibition of collagen-induced platelet aggregation at 5 uM incubated for 4 min prior to collagen-induction measured for 5.5 min by turbidometric analysis; assay type: functional, cell-free
[10] = Antiaggregating activity in Homo sapiens (human) platelet rich plasma assessed as collagen-induced platelet aggregation at 1 uM incubated for 4 min prior to collagen-induction measured for 5.5 min by turbidometric analysis (reference value: 50 to 98%); assay type: functional
[11] = Antiaggregating activity in Homo sapiens (human) platelet rich plasma assessed as adrenaline-induced platelet aggregation at 2 uM incubated for 4 min prior to adrenaline-induction measured for 5.5 min by turbidometric analysis (reference value: 65 to 100%); assay type: functional
[12] = Antiaggregating activity in Homo sapiens (human) platelet rich plasma assessed as collagen-induced platelet aggregation at 2 uM incubated for 4 min prior to collagen-induction measured for 5.5 min by turbidometric analysis (reference value: 50 to 98%); assay type: functional
[13] = Antiaggregating activity in Homo sapiens (human) platelet rich plasma assessed as disaggregation of arachidonic acid-induced platelet aggregation at 2 uM incubated for 4 min prior to arachidonic acid-induction measured for 5.5 min by turbidometric analysis relative to control; assay type: functional
[14] = system: Platelet; assay: Antiaggregating activity in Homo sapiens (human) platelet rich plasma assessed as inhibition of arachidonic acid-induced platelet aggregation at 5 uM incubated for 4 min prior to arachidonic acid-induction measured for 5.5 min by turbidometric analysis; assay type: functional, cell-free
[15] = Antiaggregating activity in Homo sapiens (human) platelet rich plasma assessed as arachidonic acid-induced platelet aggregation at 1 uM incubated for 4 min prior to arachidonic acid-induction measured for 5.5 min by turbidometric analysis (reference value: 55 to 100%); assay type: functional
[16] = Antiaggregating activity in Homo sapiens (human) platelet rich plasma assessed as ADP-induced platelet aggregation at 10 uM incubated for 4 min prior to ADP-induction measured for 5.5 min by turbidometric analysis (reference value: 54 to 88%); assay type: functional
[17] = system: Platelet; assay: Antiaggregating activity in Homo sapiens (human) platelet rich plasma assessed as inhibition of ADP-induced platelet aggregation at 50 uM incubated for 4 min prior to ADP-induction measured for 5.5 min by turbidometric analysis; assay type: functional, cell-free
[18] = Antiaggregating activity in Homo sapiens (human) platelet rich plasma assessed as arachidonic acid-induced platelet aggregation at 10 uM incubated for 4 min prior to arachidonic acid-induction measured for 5.5 min by turbidometric analysis (reference value: 55 to 100%); assay type: functional
[19] = system: Platelet; assay: Antiaggregating activity in Homo sapiens (human) platelet rich plasma assessed as inhibition of arachidonic acid-induced platelet aggregation at 50 uM incubated for 4 min prior to arachidonic acid-induction measured for 5.5 min by turbidometric analysis; assay type: functional, cell-free
[20] = Antiaggregating activity in Homo sapiens (human) platelet rich plasma assessed as ristocetin-induced platelet aggregation at 10 uM incubated for 4 min prior to ristocetin-induction measured for 5.5 min by turbidometric analysis (reference value: 65 to 99%); assay type: functional
[21] = Antiaggregating activity in Homo sapiens (human) platelet rich plasma assessed as adrenaline-induced platelet aggregation at 10 uM incubated for 4 min prior to adrenaline-induction measured for 5.5 min by turbidometric analysis (reference value: 65 to 100%); assay type: functional
[22] = system: Platelet; assay: Antiaggregating activity in Homo sapiens (human) platelet rich plasma assessed as inhibition of adrenaline-induced platelet aggregation at 50 uM incubated for 4 min prior to adrenaline-induction measured for 5.5 min by turbidometric analysis; assay type: functional, cell-free
[23] = system: Platelet; assay: Antiaggregating activity in Homo sapiens (human) platelet rich plasma assessed as inhibition of collagen-induced platelet aggregation at 50 uM incubated for 4 min prior to collagen-induction measured for 5.5 min by turbidometric analysis; assay type: functional, cell-free
[24] = Antiaggregating activity in Homo sapiens (human) platelet rich plasma assessed as collagen-induced platelet aggregation at 10 uM incubated for 4 min prior to collagen-induction measured for 5.5 min by turbidometric analysis (reference value: 50 to 98%); assay type: functional
[25] = Antiaggregating activity in Homo sapiens (human) platelet rich plasma assessed as ristocetin-induced platelet aggregation at 50 uM incubated for 4 min prior to ristocetin-induction measured for 5.5 min by turbidometric analysis (reference value: 65 to 99%); assay type: functional
[26] = Antiaggregating activity in Homo sapiens (human) platelet rich plasma assessed as ADP-induced platelet aggregation at 0.1 uM incubated for 4 min prior to ADP-induction measured for 5.5 min by turbidometric analysis (reference value: 54 to 88%); assay type: functional
[27] = system: Platelet; assay: Antiaggregating activity in Homo sapiens (human) platelet rich plasma assessed as inhibition of arachidonic acid-induced platelet aggregation at 1 uM incubated for 4 min prior to arachidonic acid-induction measured for 5.5 min by turbidometric analysis; assay type: functional, cell-free
[28] = system: Platelet; assay: Antiaggregating activity in Homo sapiens (human) platelet rich plasma assessed as inhibition of ADP-induced platelet aggregation at 0.8 uM incubated for 4 min prior to ADP-induction measured for 5.5 min by turbidometric analysis; assay type: functional, cell-free
[29] = system: Platelet; assay: Antiaggregating activity in Homo sapiens (human) platelet rich plasma assessed as inhibition of adrenaline-induced platelet aggregation at 0.5 uM incubated for 4 min prior to adrenaline-induction measured for 5.5 min by turbidometric analysis; assay type: functional, cell-free
[30] = system: Platelet; assay: Antiaggregating activity in Homo sapiens (human) platelet rich plasma assessed as inhibition of adrenaline-induced platelet aggregation at 1 uM incubated for 4 min prior to adrenaline-induction measured for 5.5 min by turbidometric analysis; assay type: functional, cell-free
[31] = system: Platelet; assay: Antiaggregating activity in Homo sapiens (human) platelet rich plasma assessed as inhibition of adrenaline-induced platelet aggregation at 0.1 uM incubated for 4 min prior to adrenaline-induction measured for 5.5 min by turbidometric analysis; assay type: functional, cell-free
[32] = system: Platelet; assay: Antiaggregating activity in Homo sapiens (human) platelet rich plasma assessed as inhibition of adrenaline-induced platelet aggregation at 2 uM incubated for 4 min prior to adrenaline-induction measured for 5.5 min by turbidometric analysis; assay type: functional, cell-free
[33] = system: Platelet; assay: Antiaggregating activity in Homo sapiens (human) platelet rich plasma assessed as inhibition of collagen-induced platelet aggregation at 0.8 uM incubated for 4 min prior to collagen-induction measured for 5.5 min by turbidometric analysis; assay type: functional, cell-free
[34] = Antiaggregating activity in Homo sapiens (human) platelet rich plasma assessed as ristocetin-induced platelet aggregation at 0.5 uM incubated for 4 min prior to ristocetin-induction measured for 5.5 min by turbidometric analysis (reference value: 65 to 99%); assay type: functional
[35] = Antiaggregating activity in Homo sapiens (human) platelet rich plasma assessed as ADP-induced platelet aggregation at 0.5 uM incubated for 4 min prior to ADP-induction measured for 5.5 min by turbidometric analysis (reference value: 54 to 88%); assay type: functional
[36] = system: Platelet; assay: Antiaggregating activity in Homo sapiens (human) platelet rich plasma assessed as inhibition of ADP-induced platelet aggregation at 2 uM incubated for 4 min prior to ADP-induction measured for 5.5 min by turbidometric analysis; assay type: functional, cell-free
[37] = system: Platelet; assay: Antiaggregating activity in Homo sapiens (human) platelet rich plasma assessed as inhibition of ADP-induced platelet aggregation at 1 uM incubated for 4 min prior to ADP-induction measured for 5.5 min by turbidometric analysis; assay type: functional, cell-free
[38] = Antiaggregating activity in Homo sapiens (human) platelet rich plasma assessed as collagen-induced platelet aggregation at 0.5 uM incubated for 4 min prior to collagen-induction measured for 5.5 min by turbidometric analysis (reference value: 50 to 98%); assay type: functional
[39] = system: Platelet; assay: Antiaggregating activity in Homo sapiens (human) platelet rich plasma assessed as inhibition of collagen-induced platelet aggregation at 2 uM incubated for 4 min prior to collagen-induction measured for 5.5 min by turbidometric analysis; assay type: functional, cell-free
[40] = Antiaggregating activity in Homo sapiens (human) platelet rich plasma assessed as collagen-induced platelet aggregation at 0.1 uM incubated for 4 min prior to collagen-induction measured for 5.5 min by turbidometric analysis (reference value: 50 to 98%); assay type: functional
[41] = system: Platelet; assay: Antiaggregating activity in Homo sapiens (human) platelet rich plasma assessed as inhibition of collagen-induced platelet aggregation at 1 uM incubated for 4 min prior to collagen-induction measured for 5.5 min by turbidometric analysis; assay type: functional, cell-free
[42] = system: Platelet; assay: Antiaggregating activity in Homo sapiens (human) platelet rich plasma assessed as inhibition of adrenaline-induced platelet aggregation at 0.8 uM incubated for 4 min prior to adrenaline-induction measured for 5.5 min by turbidometric analysis; assay type: functional, cell-free
[43] = Antiaggregating activity in Homo sapiens (human) platelet rich plasma assessed as ristocetin-induced platelet aggregation at 0.8 uM incubated for 4 min prior to ristocetin-induction measured for 5.5 min by turbidometric analysis (reference value: 65 to 99%); assay type: functional
[44] = system: Platelet; assay: Antiaggregating activity in Homo sapiens (human) platelet rich plasma assessed as inhibition of ristocetin-induced platelet aggregation at 2 uM incubated for 4 min prior to ristocetin-induction measured for 5.5 min by turbidometric analysis; assay type: functional, cell-free
[45] = Antiaggregating activity in Homo sapiens (human) platelet rich plasma assessed as ristocetin-induced platelet aggregation at 0.1 uM incubated for 4 min prior to ristocetin-induction measured for 5.5 min by turbidometric analysis (reference value: 65 to 99%); assay type: functional
[46] = Antiaggregating activity in Homo sapiens (human) platelet rich plasma assessed as arachidonic acid-induced platelet aggregation at 0.1 uM incubated for 4 min prior to arachidonic acid-induction measured for 5.5 min by turbidometric analysis (reference value: 55 to 100%); assay type: functional
[47] = system: Platelet; assay: Antiaggregating activity in Homo sapiens (human) platelet rich plasma assessed as inhibition of arachidonic acid-induced platelet aggregation at 0.8 uM incubated for 4 min prior to arachidonic acid-induction measured for 5.5 min by turbidometric analysis; assay type: functional, cell-free
[48] = Antiaggregating activity in Homo sapiens (human) platelet rich plasma assessed as arachidonic acid-induced platelet aggregation at 0.5 uM incubated for 4 min prior to arachidonic acid-induction measured for 5.5 min by turbidometric analysis (reference value: 55 to 100%); assay type: functional
[49] = system: Platelet; assay: Antiaggregating activity in Homo sapiens (human) platelet rich plasma assessed as inhibition of arachidonic acid-induced platelet aggregation at 2 uM incubated for 4 min prior to arachidonic acid-induction measured for 5.5 min by turbidometric analysis; assay type: functional, cell-free

O=C(c1ccc[n+](Cc2ccc(C[n+]3cccc(C(=O)N4CCN(c5ccccc5Cl)CC4)c3)cc2)c1)N1CCN(c2ccccc2Cl)CC1.[Br-].[Br-]
Activity [1]: 79% | Activity [2]: 51% | inhibition [3]: Active | Activity [4]: 22% | Activity [5]: 65% | Activity [6]: 78% | Activity [7]: 13% | Activity [8]: 91% | inhibition [9]: Active | Activity [10]: 84% | Activity [11]: 21% | Activity [12]: 26% | Activity [13]: 16% | inhibition [14]: Active | Activity [15]: 40%

O=C(c1ccc[n+](Cc2ccc(C[n+]3cccc(C(=O)N4CCN(c5ncccn5)CC4)c3)cc2)c1)N1CCN(c2ncccn2)CC1.[Br-].[Br-]
Activity [16]: 71% | inhibition [17]: Active | Activity [18]: 71% | inhibition [19]: Active | Activity [20]: 82% | Activity [4]: 73% | Activity [6]: 78% | Activity [8]: 70% | Activity [10]: 73% | Activity [21]: 28% | inhibition [22]: Active | inhibition [23]: Active | Activity [24]: 82% | Activity [25]: 73% | Activity [15]: 70%

COc1cc(C(=O)N2CCCC(C(=O)N3CCN(c4ncccn4)CC3)C2)cc(OC)c1OC.Cl (stereo not given)
Activity [26]: 72% | inhibition [27]: Active | inhibition [28]: Active | inhibition [29]: Active | inhibition [30]: Active | inhibition [31]: Active | inhibition [32]: Active | inhibition [33]: Active | Activity [6]: 75% | Activity [34]: 68% | Activity [35]: 50% | inhibition [36]: Active | inhibition [37]: Active | Activity [38]: 78% | inhibition [39]: Active | Activity [40]: 67% | inhibition [41]: Active | inhibition [42]: Active | Activity [43]: 55% | inhibition [44]: Active | Activity [45]: 77% | Activity [46]: 76% | inhibition [47]: Active | Activity [48]: 54% | inhibition [49]: Active
